{"source": "patent US20240066119A1", "about": "“METHODS AND PLATFORMS FOR ELICITING AN IMMUNE RESPONSE IN THE TREATMENT OF CANCER AND COMPOSITIONS AND VACCINES RELATING THERETO” (University of Maryland, College Park, priority 2021, published 2024)", "test_system": "lymphocyte egress from lymphoid tissues", "assay": "Inhibition of lymphocyte trafficking with FTY720", "format": "in vivo, C57BL6 mice", "settings": "FTY720 1 mg/kg daily i.p., day 7 after vaccination", "experimental": "Investigation of Adjuvant-Involvement on Split LN Treatments and Effect of Inhibition of Lymphocyte Trafficking on Antigen Specificity. To determine the influence of adjuvant (PolyIC) delivery in the Split LN treatment group on antigen-specificity as quantified by SIINFEKL tetramer, mice were treated as described above for Split LN treatment with soluble OVA and either PolyIC MPs or with PBS. Antigen-specific CD8^+ T cells in the blood and LNs were quantified using SIINFEKL tetramer as described above. Antigen-specific T cells were reported as a percentage of Live, CD8^+ cells. In studies to determine the effect of lymphocyte trafficking on local and systemic antigen-specificity, FTY720 (Sigma) was administered daily at 1 mg/kg via intraperitoneal injection one day prior to vaccination until the end of the experiment (7 days after vaccination). Following vaccination, antigen-specific CD8^+ T cells in the blood and LNs were quantified using SIINFEKL tetramer as described above and reported as a percentage of Live, CD8^+ cells and an overall number of cells from an identical acquisition volume (80 μL)."}
{"smiles": "CCCCCCCCc1ccc(CCC(N)(CO)CO)cc1", "note": "[FTY720]", "values": [{"measurement": "number of antigen-specific T cells in blood", "result": "greatly diminished"}, {"measurement": "percentage of antigen-specific T cells in blood", "result": "did not significantly change"}]}
